Experimental findings from ChEMBL document CHEMBL1201862, “PubChem BioAssay data set” (2004) are described below.

Common to all, as to experiment: NCI tumour cell line growth inhibition, 48 h
Assay [1] concerns SR.
The test system of assay [2] is UACC-257.
Assay [3] concerns NCI-H522.
In assay [4] the test system is HOP-62.
The test system of assay [5] is A549.
Assay [6] has as its system OVCAR-8.
The subject of assay [7] is RPMI-8226.
Assay [8] concerns CCRF-CEM.
Assay [9] has as its system NCI-H23.
For assay [10], the system named is COLO 205.
For assay [11], the system named is KM12.
Assay [12] relates to SK-MEL-2.
Assay [13] relates to LOX IMVI.
The test system of assay [14] is HCT-15.
Assay [15] deals with OVCAR-4.
Assay [16] has as its system SW-620.
Assay [17] concerns ACHN.
In assay [18] the test system is U-251.
Assay [19] concerns RXF 393.

Structures are written as SMILES.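 A five-concentration, 48-hour dose response in 96-well plates underlies each endpoint, interpolated linearly between surrounding concentrations. GI50 = concentration required for 50% inhibition of growth.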 The source made the active and inactive calls. No stated cut-off is given here; in the data, active = GI50 up to about 1.1 µM and inactive = higher. Bounds are passed on as bounds.

As to `Cc1nc(N)nc(N)c1CCCc1ccccc1`, the GI50 in assay [1] is 4.07 µM (inactive); in [2], 12.7 µM (inactive); in assay [3] it was 7.18 µM (inactive); in [4], 12.1 µM (inactive); in assay [5], 1.49 µM (inactive); in assay [6], 7.59 µM (inactive). Besides, the GI50 in [7] was 33.3 µM (inactive); in assay [8] it was 6.25 µM (inactive); in [9] it was 10.3 µM (inactive); in [10], 22.8 µM (inactive); in assay [11] it was 28.6 µM (inactive); in assay [12], 7.98 µM (inactive). Also, the GI50 in assay [13] is 3.18 µM (inactive); in assay [14], 2.87 µM; in [15], 18.4 µM (inactive); in assay [16] it was 4.57 µM (inactive); in assay [17] it was 4.35 µM (inactive); in [18] it was 5.36 µM (inactive).
In the case of `CS/C(=N\c1ccc([N+](=O)[O-])cc1C#N)NC(=O)c1ccccc1`, the GI50 in assay [1], in assay [2], in assay [4], in [5], in assay [6] and in [7] was > 100 µM (inactive) in each case. Further, the GI50 was > 100 µM (inactive) in assay [8]; > 100 µM (inactive) in assay [9]; > 100 µM (inactive) in assay [10]; > 100 µM (inactive) in assay [11]; 95.3 µM (inactive) in assay [13]; above 100 µM in assay [14]. Moreover, the GI50 in assay [19] is 40.4 µM (inactive); in assay [15], > 100 µM (inactive); in assay [16] it was > 100 µM (inactive); in assay [17], > 100 µM (inactive); in assay [18], > 100 µM (inactive).
With `CCCCCCCCCCCCCCCCNc1cccc2ccccc12`, the GI50 in assay [1], in assay [2], in assay [3], in assay [4], in assay [5] and in assay [6] was > 100 µM (inactive) in each case. Further, the GI50 in assay [7], in assay [8], in assay [9], in assay [10], in assay [11] and in assay [13] was > 100 µM (inactive) throughout. The GI50 in [14] is above 100 µM; in assay [19] it was > 100 µM (inactive); in assay [16] it was > 100 µM (inactive); in [17], > 100 µM (inactive); in assay [18], > 100 µM (inactive).
On to `C/C(CCn1[nH]c(=O)ccc1=O)=N\OCCCc1ccccc1`, for which the GI50 in assay [1], in assay [2], in assay [4], in assay [5], in [6] and in [7] was > 100 µM (inactive) throughout. The GI50 in assay [8] is > 100 µM (inactive); in assay [9], > 100 µM (inactive); in assay [11] it was > 100 µM (inactive); in assay [12], > 100 µM (inactive); in assay [13], > 100 µM (inactive); in assay [14], above 100 µM. The GI50 in assay [19], in assay [15], in assay [16] and in assay [17] was > 100 µM (inactive) in each case.
Take `Fc1ccc(F)c(C2SCc3nc4ccccc4n32)c1` (configuration not stated): the GI50 in [1] is 43.9 µM (inactive); in assay [2] it was 41.4 µM (inactive); in [3] it was 36.1 µM (inactive); in assay [4], > 100 µM (inactive); in assay [5] it was 71.4 µM (inactive); in assay [6] it was > 100 µM (inactive). Besides, the GI50 in assay [7] was 40 µM (inactive); in assay [8], 47.6 µM (inactive); in [9], 46.2 µM (inactive); in assay [10], > 100 µM (inactive); in assay [11] it was 72.6 µM (inactive); in assay [13], 65.6 µM (inactive). Also, the GI50 in assay [14] was 71.1 µM; in [19] it was 67.6 µM (inactive); in assay [15] it was 95.7 µM (inactive); in assay [16] it was > 100 µM (inactive); in [17] it was 98.4 µM (inactive); in assay [18], > 100 µM (inactive).
Regarding `CCOC(=O)/C=C1\Nc2ccccc2-n2nnnc21`, the GI50 was > 100 µM (inactive) in assay [1]; > 100 µM (inactive) in assay [2]; > 100 µM (inactive) in assay [4]; > 100 µM (inactive) in assay [5]; > 100 µM (inactive) in [6]; 64.9 µM (inactive) in assay [7]. For the same compound, the GI50 in assay [8], in assay [9], in [10], in assay [11], in assay [12] and in assay [13] was > 100 µM (inactive) each time. Also, the GI50 in assay [14] is above 100 µM; in assay [19], > 100 µM (inactive); in assay [15] it was > 100 µM (inactive); in assay [16] it was 23.7 µM (inactive); in [17], > 100 µM (inactive); in assay [18], 22.1 µM (inactive).
Turning to `c1ccc2c(c1)[nH]c1c2nc2ncccn21`, the GI50 in assay [1], in assay [2], in [3], in assay [4], in [5] and in assay [6] was > 100 µM (inactive) throughout. The GI50 in assay [8], in [9], in [11], in assay [12], in [19] and in [15] was > 100 µM (inactive) throughout. For the same compound, the GI50 in assay [16], in [17] and in assay [18] was > 100 µM (inactive) each time.
Consider `CC(C)C1CC(O)O[C@@H]([C@@H](C)[C@H]2CC(=O)[C@@H]3[C@@H]4[C@@H](O)[C@H](O)[C@H]5[C@@H](O)[C@H](O)CC[C@]5(C)[C@H]4CC[C@]23C)C1` (some centres not stated), for which the GI50 was > 100 µM (inactive) in assay [1]; 5.06 µM (inactive) in [2]; 70.1 µM (inactive) in assay [3]; 21.2 µM (inactive) in [4]; 53.1 µM (inactive) in assay [5]; 54.1 µM (inactive) in assay [6]. The GI50 in assay [8] was > 100 µM (inactive); in assay [9] it was 36 µM (inactive); in assay [10] it was > 100 µM (inactive); in [11], 28.6 µM (inactive); in [12], 53.6 µM (inactive); in [13] it was 50.1 µM (inactive). Further, the GI50 is above 100 µM in assay [14]; 13.3 µM (inactive) in assay [19]; > 100 µM (inactive) in assay [15]; > 100 µM (inactive) in [16]; 24.4 µM (inactive) in [17]; 63 µM (inactive) in [18].
